Consider 12 molecules from paper PMC12750388, “Coumarin-1,2,3-Triazole Conjugates as Molecular Scaffolds for the Selective Induction of ROS-Driven Apoptosis in Cancer Cells in the Development of Pyruvate Kinase M2 Inhibitors” (ACS Omega, 2025).

One series relates to SCC-9 cell line. The series can be described thus: MTT cell viability assay, SCC-9. In kind it is cell-based, human. The following applies: for SI SCC-9: IC50 human gingival fibroblast / IC50 SCC-9; for IC50: MTT, 48 h. On the procedure:
(§1) The viability of SCC cell lines and primary human fibroblast cells was evaluated using the MTT assay to determine half maximal inhibitory concentration (IC50). Briefly, cells were grown in triplicate in 96-well plates (5 × 10^3 cells/well) until confluence. Then the medium was removed, fresh medium was added, and the cells were returned to the incubator in the presence of different compounds. DMSO at the same concentrations was used as a 100% cell viability control. After 48 h, cells were incubated with 5 mg/mL MTT reagent (3-(4,5-dimethyl-2-thiazolyl)-2,5-diphenyl-2-H-tetrazolium bromide) (Sigma-Aldrich Co., St. Louis, MO, USA) for 3.5 h. After that, formazan crystals were dissolved in MTT solvent solution (DMSO/methanol 1:1 v/v), and the absorbance at 560 nm was evaluated using an EPOCH microplate spectrophotometer (BioTek Instruments, Winooski, VT, USA) with the background absorbance at 670 nm subtracted. Each of the 12 compounds (7a–7l) was tested at six different concentrations, ranging from 6.25 to 200 μM in cancer and normal cell lines. Control (carboplatin) was tested at six different concentrations ranging from 25 μM to 800 μM in cancer cells and from 50 μM to 1600 μM in normal cells.
(§2) Half-maximal inhibitory concentration (IC50) values were obtained from the MTT assay of at least three independent replicates through nonlinear regression analysis using GraphPad Prism 5.0 software (Intuitive Software for Science, San Diego, CA, USA). Data were presented as means ± standard deviation (SD). A log dose–response curve (inhibitor vs response) using the least-squares method was used to determine the IC50 and SD from the data. The selectivity index (SI) was calculated as the ratio between the IC50 in normal cells and the IC50 in cancer cells, obtained by dividing the IC50 of normal cells by the IC50 of cancer cells.
(Formazan colour is commonly taken as a measure of viable cells.)

For the next series, the system named is SCC-4. The series can be described thus: MTT cell viability assay, SCC-4. In kind it is cell-based, human. As to conditions: for SI SCC-4: IC50 human gingival fibroblast / IC50 SCC-4; for IC50: MTT, 48 h. On the procedure: as §1, §2
A further series deals with SCC-25. The experiment in a line: MTT cell viability assay, SCC-25. In kind it is cell-based, human. The following applies: for SI SCC-25: IC50 human gingival fibroblast / IC50 SCC-25; for IC50: MTT, 48 h. The method, then: as §1, §2
Series [1] has as its system Primary Gingival Fibroblast. The series can be described thus: MTT cell viability assay, normal cells. The following applies: for IC50: MTT, 48 h, normal cells; for Average SI: average of SI for SCC-9, SCC-4 and SCC-25 versus gingival fibroblast. In kind it is cell-based, human. On the procedure:
as §1, §2

The subject of the next series is erythrocytes. The experiment in a line: Hemolysis assay. In kind it is cell-based. As to conditions: human erythrocytes, 300 μM. On the procedure: A hemolysis assay to evaluate surfactant effects of tested substances was performed using human blood approved by the Research Ethics Committee of Universidade Federal Fluminense (CAAE: 43134721.4.0000.5626). Erythrocytes are isolated upon three repeated centrifugation cycles at 1500 rpm for 15 min. Between each cycle of centrifugation, supernatant was removed, and a pH 7.5 PBS (phosphate-buffered saline) solution supplemented with 10 mM glucose was added to remove lysed erythrocytes. The number of cells was determined in an Automatic Cell Counter (Thermo Fisher, Waltham, MA, USA). Erythrocytes were then plated in 96-well plates at a concentration of 4 × 10^8 cells/well in triplicates, and 10 μL of compounds were added at a final concentration of 300 μM in PBS with glucose (final volume 100 μL). Ten μL of PBS was used as a negative control, and 10 μL of PBS with 0.1% Triton X-100 was used as a positive control. Data reading was performed with EPOCH (BioTek Instruments, Winooski, VT, USA) at an absorbance of 540 nm.

In another series the test system is SCC-9 cells. The experiment in a line: MTT cell viability with N-acetyl-L-cysteine pretreatment. In kind it is cell-based, human. As to conditions: SCC-9, 48 h; 7f 1 × IC50, menadione 20 μM. On the procedure:
The production of reactive oxygen species (ROS) was assessed by the detection of hydrogen peroxide (H2O2) using the ROS-Glo H2O2 assay kit (Promega Corporation, Madison, WI, USA; G8820). […] A plate with wells without cells was used as a control. Cells and cell-free wells remained in treatment at times of interest, and 2 h before completion of the times, well volumes were removed to reduce to 40 μL per well. Then the positive control of menadione (Sigma-Aldrich Co., St. Louis, MO, USA), a polycyclic aromatic ketone based on 1,4-naphthoquinone, was used to treat its respective well, and H2O2 substrate from the kit was added for all treatments, followed by the incubation of the plate for the remaining 2 h. Then the detection solution was added, and the plates remained at room temperature for 20 min, following the reading in the TD 20/20 luminometer (Turner Designs, Sunnyvale, CA, USA). The reading of bioluminescence detected is indicated as arbitrary units (a.u.). Additionally, the cell viability was assessed through pretreatment of cells with 10 mM N-acetyl-L-cysteine (NAC) (Sigma-Aldrich Co., St. Louis, MO, USA) for 2 h. […] At the end of the time, the MTT cell viability assay was performed.

For `N.N.O=C([O-])C1(C(=O)[O-])CCC1.[Pt+2]` [Carboplatin, reference compound], in the series with SCC-9 cell line, the “SI SCC-9” value amounted to 2.31 and half-maximal inhibition (IC50) required 150 µM. In the series on SCC-4, the “SI SCC-4” value is 2.45 and inhibition was half-maximal at 142 µM (IC50). In the series with SCC-25, the “SI SCC-25” value is listed as 1.40 and the IC50 (in general, the concentration at which inhibition is half-maximal) worked out at 249 µM. Moreover, in series [1], the IC50 was 348 µM and the “Average SI” value is listed as 2.05. The “hemolytic activity / membrane integrity” value in the series with erythrocytes was “neither carboplatin nor PBS affected the membrane integrity”.
Take `O=C1C=C(NCc2cn(CCOc3cc(=O)oc4ccccc34)nn2)C(=O)c2ccccc21` [Compound 7a, 2-(((1-(2-((2-Oxo-2H-chromen-4-yl)oxy)ethyl)-1H-1,2,3-triazol-4-yl)methyl)amino) naphthalene-1,4-dione]: the 50% inhibitory concentration (IC50) with SCC-9 cell line (Homo sapiens, SCC-9) was over 200 µM.
The same measure, in the same setting: for `O=C1C=C(OCc2cn(CCOc3cc(=O)oc4ccccc34)nn2)C(=O)c2ccccc21` [Compound 7b, 2-((1-(2-((2-Oxo-2H-chromen-4-yl)oxy)ethyl)-1H-1,2,3-triazol-4-yl)methoxy) naphthalene-1,4-dione] the value was over 200 µM.
With `CC(C)=CC1=C(OCc2cn(CCOc3cc(=O)oc4ccccc34)nn2)C(=O)c2ccccc2C1=O` [Compound 7c, 2-(2-Methylprop-1-en-1-yl)-3-((1-(2-((2-oxo-2H-chromen-4-yl)oxy)ethyl)-1H-1,2,3-triazol-4-yl)methoxy)naphthalene-1,4-dione], the IC50 in the series on SCC-9 cell line (Homo sapiens, SCC-9) came out at 28.9 µM; in the series with SCC-4 (Homo sapiens, SCC-4), 17 µM; in the series on SCC-25 (Homo sapiens, SCC-25), 28.5 µM; in series [1] (Homo sapiens, Fibroblast) it was 30.9 µM. The “SI SCC-9” value in the series on SCC-9 cell line was determined as 1.07. Further, in the series with SCC-4, the “SI SCC-4” value was 1.82. Moreover, the “SI SCC-25” value in the series on SCC-25 worked out at 1.08. The “Average SI” value in series [1] was 1.32.
Consider `CC(C)=CCC1=C(OCc2cn(CCOc3cc(=O)oc4ccccc34)nn2)C(=O)c2ccccc2C1=O` [Compound 7d, 2-(3-Methylbut-2-en-1-yl)-3-((1-(2-((2-oxo-2H-chromen-4-yl)oxy)ethyl)-1H-1,2,3-triazol-4-yl)methoxy)naphthalene-1,4-dione], for which the IC50 in the series on SCC-9 cell line (Homo sapiens, SCC-9) was over 150 µM.
On the same count and under the same terms, for `O=C1C=C(NCc2cn(CCCOc3cc(=O)oc4ccccc34)nn2)C(=O)c2ccccc21` [Compound 7e, 2-(((1-(3-((2-Oxo-2H-chromen-4-yl)oxy)propyl)-1H-1,2,3-triazol-4-yl)methyl)amino) naphthalene-1,4-dione] the value was over 150 µM.
Regarding `O=c1cc(OCCCn2cc(COc3cc(=O)oc4ccccc34)nn2)c2ccccc2o1` [Compound 7g, 4-(3-(4-(((2-Oxo-2H-chromen-4-yl)oxy)methyl)-1H-1,2,3-triazol-1-yl)propoxy)-2H-chromen-2-one], the IC50 in the series with SCC-9 cell line (Homo sapiens, SCC-9) is over 150 µM.
With `CC(=O)OCc1cn(CCCOc2cc(=O)oc3ccccc23)nn1` [Compound 7h, (1-(3-((2-Oxo-2H-chromen-4-yl)oxy)propyl)-1H-1,2,3-triazol-4-yl)methyl acetate], the IC50 in the series with SCC-9 cell line (Homo sapiens, SCC-9) is over 200 µM.
`O=c1cc(OCCn2cc(-c3ccccc3)nn2)c2ccccc2o1` [Compound 7i, 4-(2-(4-Phenyl-1H-1,2,3-triazol-1-yl)ethoxy)-2H-chromen-2-one] displayed an IC50 in the series with SCC-9 cell line (Homo sapiens, SCC-9) of over 200 µM.
Still for that read-out and setting: the figure for `CCCCCCc1cn(CCOc2cc(=O)oc3ccccc23)nn1` [Compound 7j, 4-(2-(4-Hexyl-1H-1,2,3-triazol-1-yl)ethoxy)-2H-chromen-2-one] is over 200 µM; for `CCCCCCc1cn(CCCOc2cc(=O)oc3ccccc23)nn1` [Compound 7l, 4-(3-(4-Hexyl-1H-1,2,3-triazol-1-yl)propoxy)-2H-chromen-2-one] it is over 150 µM.
For the molecule `CC1=CC(=O)c2ccccc2C1=O` [menadione, reference compound], the “cell viability in the presence of 10 mM N-acetyl-L-cysteine (NAC)” value in the series with SCC-9 cells was “NAC protected cell death”.
